The values that follow come from patent US12274703B2, “Compositions and methods of treatment for neurological disorders comprising a dementia” (Gliapharm SA, priority 2017, dated 2025).

Read-outs that look alike come from different tables or passages of the source. Bounds are passed on as bounds.

Test [1] deals with astrocytes. Put plainly: MTT viability assay. Format: cell-based. Particulars: Mus musculus, Astrocyte; CDC54K hits; cellular toxicity, 0-200 uM. Here is the method:
(§1) Primary cultures of cerebrocortical astrocytes were obtained from 1-2-day-old OF1 mouse pups (Charles River Laboratories). Briefly, cortices were isolated and minced in small pieces under a dissecting microscope. The cells were incubated for 30 min at 37° C. in a solution containing 20 U/ml of papain enzyme (Worthington Biochemical), L-cysteine 1 mM (Sigma), and 10 kU/ml DNase I (Worthington Biochemical) for an enzymatic dissociation. Papain activity was stopped by the addition of fetal calf serum (FCS) to the solution, and a single-cell suspension was then obtained by mechanical dissociation, which consisted in cells trituration in a DMEM (D7777, Sigma-Aldrich) medium (supplemented with 44 mm NaHCO3, and 10 ml/L antibiotic/antimycotic solution) containing 10% FCS. The cells were seeded at an average density of 6×10^4 cells/cm^2 in poly-D-lysine-coated 96, 12 or 6-well culture plates, depending on their use, and incubated at 37° C. in a humidified atmosphere containing 5% CO2/95% air. Culture medium was renewed twice per week. Cells were stimulated and harvested between DIV14 and DIV17, when confluence and cell growth were optimal.
For cell toxicity determination, astrocytes in 96-well plates were stimulated 24 h (37° C. 5% CO2/95% air) with a gradient ranging from 0.1 to 200 μM of tested compounds. After stimulation, 5 mg/ml thiazol blue tetrazolium bromide (MTT, Sigma-Aldrich) in warm D5030 complete medium was added to each well, and cells were incubated for 4 h at 37° C. (5% CO2). The medium was then removed by aspiration, and the reaction was stopped by the addition of 50 μl DMSO per well.
The amount of reduced MTT (formazan) solubilized in DMSO was then determined spectrophotometrically using absorbance at 570 nm (Safire 2; Tecan).
MTT cellular viability assay was performed on astrocytes exposed to molecules from the Prestwick library (Prestwick hits; concentrations ranging from 0 uM to 200 uM).
MTT cellular viability assay was performed on astrocytes exposed to CDC54K hits (concentrations ranging from 0 uM to 200 uM).

For test [2], the system named is primary astrocytes. Put plainly: High throughput screening for lactate secretion: acidification of extracellular medium (SNARF5). The test is classed as cell-based, mouse. The arrangement: key to Score / HTS Score (lactate) / HTS Score (SNARF5) / Score_SNARF: fraction of positive control activity (positive control = 100%). Particulars: for Emax at 10 µM: Mus musculus, Astrocyte, 1.5 h. In outline: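 Mouse cortical astrocytes (DIV17) stimulated 90 min at 10 uM compound (1% DMSO) in low-bicarbonate DMEM, 5 mM glucose, with SNARF-5F; extracellular acidification read as 630/580 nm emission ratio (exc 480 nm). Duplicates; score as % of CCCP 2 uM control, hits >3× summed SD above DMSO.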

Test [3] relates to astrocytes. Put plainly: Intracellular glycogen quantification. Format: cell-based, mouse. Particulars: CDC54K hits; 10 μM, 3 h.
Test [4] relates to astrocytes. Description: Extracellular lactate quantification. Format: cell-based, mouse. Particulars: for EC50: Mus musculus, Astrocyte, 1.5 h, CDC54K hits, 0-100 uM, 90 min, read-out: Lactate EC50. Here is the method: as §1
Secretion of L-lactate was determined in the extracellular medium of 96-well plated astrocytes after 90 min stimulation (at 37° C., in 5% CO2/95% air conditions) with the drug of interest. The stimulation medium was composed of D5030 medium (completed with D-glucose 5 mM and 44 mM sodium bicarbonate) for 90 min in concentrations ranging from 0 to 100 μM.
Briefly, 200 μl of a Glycine (Sigma)-Semicarbazide (Acros) 0.2M pH 10 buffer containing 3 mM NAD (Roche) and LDH 14 U/ml (Roche) was added to each well of a 96-well plate containing 30 μl aliquots complemented with 20 μl fresh complete D5030 medium. Samples were incubated at 37° C. for 1 h. After samples cooled down at room temperature, the fluorescence intensity (340 nm excitation/450 nm emission) that represents the amount of NADH produced was measured, and lactate concentration values were determined from a standard curve of L-lactate.
Statistical analysis consisted in ANOVA followed by Fisher LSD post-hoc test for pair-wise comparisons.
Levels of lactate secreted by astrocytes were measured in the extracellular medium at 90 min after stimulation with hits (molecules) from the CDC54K library.

Test [5] concerns astrocytes. Put plainly: Production of H2O2 (mitochondrial activity). Particulars: Mus musculus, Astrocyte, 1.5 h; CDC54K hits; 0-200 uM, 90 min. The test is classed as cell-based. The procedure: as §1
Hydrogene peroxide (H2O2) released in the supernatant is detected enzymatically with Amplex red (Zhou, Diwu et al. 1997). Oxidation of Amplex red is catalysed by the horseradish peroxidase in presence of H2O2 into highly fluorescent resorufin. Fluorescence measure is read at 545 nm extinction, 590 nm emission. The amount of H2O2 was expressed relatively to the proteins content extracted from the cells in culture. […]
Mitochondrial respiration in astrocytes was measured through production of H2O2 at 90 min after stimulation with CDC54K hits (ranging from 0 to 200 uM).

Setting [6] is: Appendix I, primary screening, 10 uM, 90 min, relative to positive control, read-out: Score.
The mark [7] stands for this setting: CDC54K hits, 10 uM, 90 min, relative to positive control CCCP 2 uM, read-out: HTS Score (SNARF5).

Take `COc1ccccc1NC(=O)Cc1nn(C)c(=O)c2ccccc12` [K851-0113]: the IC50 in test [1] and in test [5] was over 200 µM in each case. Further, the Emax at 10 µM in test [2] (setting [6]) and in test [2] (setting [7]) was 72.2% throughout. For the same molecule, the “Glycogen (statistical significance of glycogen degradation)” value in test [3] is “ns”. The EC50 in test [4] came to 2 µM.
For the molecule `CCc1ccc(S(=O)(=O)Nc2ccc3[nH]ncc3c2)cc1` [T5599014], the IC50 is over 200 µM in test [1] and 158 µM in test [5]. For the same molecule, in test [2] (Appendix I, primary screening confirmation (SNARF5)), the Score_SNARF is reported as 0.5778. The molecule also yielded a Score in test [2] (Appendix I, primary screening, 10 uM, 90 min, relative to positive control) of 0.5424. In addition, the “HTS Score (SNARF5)” value in test [2] (CDC54K hits, 10 uM, 90 min, relative to positive control CCCP 2 uM) stood at 0.542. For the same molecule, in test [3], the “Glycogen (statistical significance of glycogen degradation)” value is on record as “ns”. For the same molecule, in test [4] (Appendix I, secondary screening, dosage of extracellular lactate), the Score_LACTATE stood at 0.4419. In addition, the 50% effective concentration (EC50) in test [4] worked out at 8.8 µM.
`Fc1ccc(-c2cc3n(n2)CCCN(Cc2ccncc2)C3)cc1` [T202-1455]: the IC50 in test [1] and in test [5] was over 200 µM throughout. Also, the Emax at 10 µM in test [2] (setting [6]) and in test [2] (setting [7]) was 97.1% throughout. Also, in test [3], the “Glycogen (statistical significance of glycogen degradation)” value is “ns”. In test [4], the concentration for a half-maximal effect (EC50) was 15 µM.
